{
  "source": "ChEMBL document CHEMBL1133158",
  "about": "“Beta-carbonyl substituted glutathione conjugates as inhibitors Of O. volvulus GST2” (Bioorg Med Chem Lett, 2000)",
  "key": {"[1]": {"assay": "Selectivity of compound for piGST to that of OvGST2"}, "[2]": {"target": "Glutathione S-transferase P (Homo sapiens, UniProt P09211)", "sequence (P09211 whole entry)": "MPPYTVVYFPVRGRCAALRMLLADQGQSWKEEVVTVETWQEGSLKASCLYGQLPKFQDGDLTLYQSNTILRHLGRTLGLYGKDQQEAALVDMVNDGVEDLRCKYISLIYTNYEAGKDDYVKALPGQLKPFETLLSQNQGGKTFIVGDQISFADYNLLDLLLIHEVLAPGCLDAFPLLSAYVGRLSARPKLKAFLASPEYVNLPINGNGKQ", "assay": "Inhibitory activity against human Glutathione S-transferase P"}},
  "data": [
    {"compound": "NC(CCC(=O)NC(CSC1CCCC(=O)C1)C(=O)NCC(=O)O)C(=O)O", "note": "(stereo unspecified)", "values": [
      {"measurement": "Selectivity", "setting": "[1]", "value": "> 1.1"},
      {"measurement": "IC50", "setting": "[2]", "value": "> 250", "unit": "µM"}
    ]},
    {"compound": "CCCCOC(=O)CC(SCC(NC(=O)CCC(N)C(=O)O)C(=O)NCC(=O)O)C(=O)O", "note": "(stereo unspecified)", "values": [
      {"measurement": "Selectivity", "setting": "[1]", "value": 0.8},
      {"measurement": "IC50", "setting": "[2]", "value": 40.3, "unit": "µM"}
    ]},
    {"compound": "CC(C)C(=O)CC(SCC(NC(=O)CCC(N)C(=O)O)C(=O)NCC(=O)O)c1ccccc1", "note": "(stereo unspecified)", "values": [
      {"measurement": "Selectivity", "setting": "[1]", "value": "> 7.8"},
      {"measurement": "IC50", "setting": "[2]", "value": "> 250", "unit": "µM"}
    ]},
    {"compound": "NC(CCC(=O)NC(CSC(CC(=O)O)C(=O)O)C(=O)NCC(=O)O)C(=O)O", "note": "(stereo unspecified)", "values": [
      {"measurement": "Selectivity", "setting": "[1]", "value": "> 13.9"},
      {"measurement": "IC50", "setting": "[2]", "value": "> 250", "unit": "µM"}
    ]},
    {"compound": "CC(=O)CC(SCC(NC(=O)CCC(N)C(=O)O)C(=O)NCC(=O)O)C(C)C", "note": "(stereo unspecified)", "values": [
      {"measurement": "IC50", "setting": "[2]", "value": "> 250", "unit": "µM"}
    ]},
    {"compound": "CCC(CC(C)=O)SCC(NC(=O)CCC(N)C(=O)O)C(=O)NCC(=O)O", "note": "(stereo unspecified)", "values": [
      {"measurement": "IC50", "setting": "[2]", "value": 5.2, "unit": "µM"}
    ]},
    {"compound": "COC(=O)CC(SCC(NC(=O)CCC(N)C(=O)O)C(=O)NCC(=O)O)C(=O)OC", "note": "(stereo unspecified)", "values": [
      {"measurement": "IC50", "setting": "[2]", "value": 208, "unit": "µM"}
    ]},
    {"compound": "CCCC(CC(C)=O)SCC(NC(=O)CCC(N)C(=O)O)C(=O)NCC(=O)O", "note": "(stereo unspecified)", "values": [
      {"measurement": "Selectivity", "setting": "[1]", "value": 1.3},
      {"measurement": "IC50", "setting": "[2]", "value": 8.1, "unit": "µM"}
    ]},
    {"compound": "CC(=O)CC(SCC(NC(=O)CCC(N)C(=O)O)C(=O)NCC(=O)O)c1ccccc1", "note": "(stereo unspecified)", "values": [
      {"measurement": "IC50", "setting": "[2]", "value": 155, "unit": "µM"}
    ]},
    {"compound": "CCCOC(=O)CC(SCC(NC(=O)CCC(N)C(=O)O)C(=O)NCC(=O)O)C(=O)OCCC", "note": "(stereo unspecified)", "values": [
      {"measurement": "IC50", "setting": "[2]", "value": "> 250", "unit": "µM"}
    ]},
    {"compound": "CCC(=O)CC(C)SCC(NC(=O)CCC(N)C(=O)O)C(=O)NCC(=O)O", "note": "(stereo unspecified)", "values": [
      {"measurement": "IC50", "setting": "[2]", "value": 217, "unit": "µM"}
    ]}
  ]
}
